Data set [1] is described as follows: Comparative bioavailability: baclofen plasma levels after oral baclofen or example 15. It counts as in vivo. The conditions noted are these: 20 ug/kg, baclofen dosed 20 mcg/kg p.o. As for the experimental part: (§1) The prodrugs compounds of the present invention, i.e. the compounds of formula-I release in-vivo the compounds of formula III. Two of the representative compounds of the present invention i.e. compound of example 5 and compound 15, were tested to determine the comparative bioavailability of the drug and the prodrug. The following method was employed for the determination of bioavailability of the test compound of example 5.
(§2) Table 1 and Table 2 below provide Dose-concentration data for the representative compounds 5 and compound 15 of the invention, which are prodrugs of gabapentin and baclofen respectively.

The test system of the next data set is mouse. The conditions noted are these: cited from earlier work.
The conditions of data set [2]: oral; cited from earlier work.
Data set [3] can be described thus: Comparative bioavailability: LC-MS determination of gabapentin in plasma after oral gabapentin or example 5. Particulars: for dose dependence of bioavailability / absorption (in words): data of Table 1, 50 and 100 mg/kg p.o.; for AUC(0-t): po, t = 24 hrs, plasma. It counts as in vivo. How it is done:
as §1
Liquid Chromatography Mass Spectrometric Method for the Determination of Gabapentin from Example 5 in Plasma.
Mobile phase: Prepare 2 mM ammonium acetate solution in milliQ water and adjust the pH to 3.0 with formic acid. Mix above buffer solution and acetonitrile in the ratio (30:70 v/v) and filter.
Column: Hypurity C18, 50×2.1 mm, 5μ; Column oven temperature: 40° C.; Flow rate: 0.25 ml/min; Injection volume: 10 μl; Run time: 2.0 min.; Retention time: Example 5: 1.0 min.; Gabapentin: 1.0 min.; Carbamazepine: 1.0 min.;
Mass Parameters: Spray Voltage: 3500 V; Sheath Gas Pressure: 35 ml/min; Capillary Temperature: 380° C.; Mode: Positive; Aux gas pressure: 10 ml/min
For Gabapentin Linearity Range: 200 ng-19600 ng/ml in mobile phase.
For example 5: Linearity Range: 50 ng 5000 ng/ml in mobile phase.
A 100 μl plasma sample and 5 μl of internal standard was taken in a micro centrifuge tube. Vortex for 20-30 sec. The test samples were loaded in preconditioned HLB cartridges. The cartridge was washed with 1 ml Milli-Q water the sample was eluted with 500 μl of mobile phase. The sample was centrifuged at 15000 rpm for 5 minutes and the supernatant was collected for analysis.
as §2

For data set [4] the following is noted: cited from earlier work.

Results on five molecules are retold here after patent publication US20100145057A1, “NOVEL PRODRUGS” (SUN PHARMA ADVANCED RESEARCH COMPANY LTD., priority 2007, published 2010).

In general, Cmax refers to the maximum level reached in the sampled fluid or tissue. As usually defined, the AUC(0-t) is exposure summed from dosing to a finite time, without extrapolation to infinity. Lower therefore signals low exposure. For orientation: LD50 means the dose at which mortality reaches 50%.

Structures are written as SMILES. Read-outs that look alike come from different tables or passages of the source.

`NCC(CC(=O)O)c1ccc(Cl)cc1` (centres unmarked) [Baclofen] had a Cmax in data set [1] of 3.6 µg/mL. In data set [1] (t = 24 hrs), this molecule came in with an AUC(0-t) of 15 µg·h/mL.
`O=C1CC2(CCCCC2)CN1` [corresponding lactam]: in the data set with mouse, the LD50 was 300 mg/kg.
With `NC[C@H]1CC[C@H](C(=O)O)CC1` [Tranexamic acid, trans-4-(aminomethyl)cyclohexanecarboxylic acid], in data set [2], the “orally administered dose absorbed” value is given as 35-40%.
For `CCOC(=O)C(C)=NOC(=O)NCC1(CC(=O)O)CCCCC1` [Example 5, N-[(Ethyl oximinopropionate-2-yl)carbonyl]-1-aminomethyl cyclohexaneacetic acid], the “dose dependence of bioavailability / absorption (in words)” value in data set [3] is “dose-proportional bioavailability”.
For the molecule `NCC1(CC(=O)O)CCCCC1` [Gabapentin, 1-(aminomethyl)cyclohexaneacetic acid], the oral bioavailability result in data set [4] (900 mg/day oral) was “approximately 60%”; in data set [4] (1800 mg/day oral), around 27%. Moreover, in data set [3], the “dose dependence of bioavailability / absorption (in words)” value is “non-linear saturable absorption, with lower bioavailability at the higher dose”. Also, the values for the AUC(0-t) in data set [3] (gabapentin dosed 50 mg/kg p.o.) and in data set [3] (gabapentin dosed 100 mg/kg p.o.) were 85 µg·h/mL and 99 µg·h/mL, respectively. For the same molecule, the LD50 in the data set on mouse is above 8000 mg/kg.
